Assay results taken from PMC9820430, “New Affordable Methods for Large-Scale Isolation of Major Olive Secoiridoids and Systematic Comparative Study of Their Antiproliferative/Cytotoxic Effect on Multiple Cancer Cell Lines of Different Cancer Origins” (International Journal of Molecular Sciences, 2022).
Like-named read-outs stand apart in the source and are kept apart here.

What was measured:
A2058 = assay: ATP-based luminescence cell viability assay (ViaLight), 72 h; design: species or system human; settings: for EC50: Homo sapiens, A2058, 72 h, A2058, 72 h treatment, read-out: EC50 Values of Olive Oil Polyphenols
Protocol: (§1) The antiproliferative/cytotoxic effects of the selected OOPs on each cell line were assessed by measuring the cellular ATP levels after 72 h treatments using an ATP-based luminescence assay. This assay, initially developed as a tumor chemosensitivity assay, has shown considerable promise as a general in vitro toxicity assay due to its high sensitivity that allows the detection of a small number of cells. Consequently, it can be applied to both cancer cell lines and primary tissue cells. […] The EC50 values were calculated by nonlinear regression (curve fit) using a sigmoidal dose–response equation (Figure 2A and Figure S2).
(§2) The OOPs tested in this study were first dissolved in an appropriate DMSO volume such as to prepare a final stock solution of 50 mM, which was further used to prepare various compound concentrations in DMSO-based solutions. The final DMSO concentration in the cell culture was maintained constant in all treated groups of any given experiment and never exceeded the value of 0.2% (v/v). For the treatment experiments, cells were plated in 96-well culture plates, in 100 μL of complete medium at a seeding density of 5000–10,000 cells/well—depending on cells’ size and doubling time—and were allowed to adhere overnight (~16 h). The next day, 150 μL of complete medium was added to each well and the cells were treated with various concentrations of OOPs. Each concentration was tested in triplicate and was repeated 2–3 times. To prepare the final concentration solutions, 0.5 μL of a 500× stock of each tested compound in DMSO was added directly into each well in a final volume of 250 μL culture medium and was gently mixed by pipetting. Control wells were prepared under the same experimental conditions by adding only DMSO at a final concentration of 0.2% (v/v). Compounds were not renewed during the entire period of cell exposure. All cells were cultured at 37 °C in a 5% (v/v) CO2 for 24, 48 or 72 h.
(§3) Briefly, after the treatment with OOPs, the adapted medium was removed from the dish wells and the cells were washed twice with medium without FBS. Then, the C-lysis (LT27-076) was diluted in PBS (1:2) and a volume of 50 μL was added to each well. Cells were incubated with C-lysis for at least 10 min. Finally, an equal volume of lysed cells from each well and ATP monitoring reagent (AMR; LT27-212) was transferred to the wells of a white-walled illuminometer plate (Greiner bio-one; 655074). Cell viability was quantified by measuring luminescence using a multi-mode microplate reader Safire^2 Tecan (software Magellan V6.00 STD.2PC WIN.20000/XP).

AGS = assay: as above; design: species or system human; settings: Homo sapiens, 72 h, 72 h treatment, read-out: EC50 Values of Olive Oil Polyphenols
Protocol: as §1, §2, §3

Caco-2 = assay: as above; design: species or system human; settings: 72 h treatment, read-out: EC50 Values of Olive Oil Polyphenols
Protocol: as §1, §2, §3

H1299 = assay: as above; design: species or system human
Protocol: as §1, §2, §3

H1437 = assay: as above; design: species or system human; settings: for EC50: Homo sapiens, NCI-H1437, 72 h, H1437, 72 h treatment, read-out: EC50 Values of Olive Oil Polyphenols
Protocol: as §1, §2, §3

HT-29 = assay: as above; design: species or system human; settings: Homo sapiens, HT-29, 72 h, 72 h treatment, read-out: EC50 Values of Olive Oil Polyphenols
Protocol: as §1, §2, §3

HaCaT = assay: as above; design: species or system human; settings: Homo sapiens, HaCaT, 72 h, HaCaT (immortal keratinocytes); 72 h treatment; read-out: EC50 Values of Olive Oil Polyphenols
Protocol: as §1, §2, §3

Hela = assay: as above; design: species or system human; settings: Homo sapiens, HeLa, 72 h, 72 h treatment, read-out: EC50 Values of Olive Oil Polyphenols
Protocol: as §1, §2, §3

HepG-2 = assay: as above; design: species or system human; settings: Homo sapiens, HepG2, 72 h, 72 h treatment, read-out: EC50 Values of Olive Oil Polyphenols
Protocol: as §1, §2, §3

Huh-7 = assay: as above; design: species or system human; settings: Homo sapiens, Huh-7, 72 h, 72 h treatment, read-out: EC50 Values of Olive Oil Polyphenols
Protocol: as §1, §2, §3

MCF 10A = assay: as above; design: species or system human; settings: Homo sapiens; MCF 10A (non-tumorigenic epithelial); 72 h treatment; read-out: EC50 Values of Olive Oil Polyphenols
Protocol: as §1, §2, §3

MCF-7 = assay: as above; design: species or system human; settings: 72 h treatment, read-out: EC50 Values of Olive Oil Polyphenols
Protocol: as §1, §2, §3

MDA-MB 231 = assay: as above; design: species or system human; settings: for EC50: MDA-MB 231, 72 h treatment, read-out: EC50 Values of Olive Oil Polyphenols
Protocol: as §1, §2, §3

ME-180 = assay: as above; design: species or system human; settings: Homo sapiens, ME-180, 72 h, 72 h treatment, read-out: EC50 Values of Olive Oil Polyphenols
Protocol: as §1, §2, §3

MKN-45 = assay: as above; design: species or system human; settings: Homo sapiens, MKN-45, 72 h, 72 h treatment, read-out: EC50 Values of Olive Oil Polyphenols
Protocol: as §1, §2, §3

MRC-5 = assay: as above; design: species or system human; settings: Homo sapiens, MRC5; MRC-5 (non cancer, lung); 72 h treatment; read-out: EC50 Values of Olive Oil Polyphenols
Protocol: as §1, §2, §3

PANC-1 = assay: as above; design: species or system human; settings: Homo sapiens, PANC-1, 72 h, 72 h treatment, read-out: EC50 Values of Olive Oil Polyphenols
Protocol: as §1, §2, §3

SK-BR-3 [1] = assay: as above; design: species or system human; settings: for EC50: Homo sapiens, SK-BR-3, 72 h, SK-BR-3, 72 h treatment, read-out: EC50 Values of Olive Oil Polyphenols
Protocol: as §1, §2, §3

SK-MEL-28 = assay: as above; design: species or system human; settings: for EC50: SK-MEL-28, 72 h treatment, read-out: EC50 Values of Olive Oil Polyphenols
Protocol: as §1, §2, §3

SK-BR-3 [2] = settings: cited from earlier work

EC50 (AGS) [µM]	EC50 (Caco-2; Homo sapiens, Caco-2, 72 h) [µM]	EC50 (H1437) [µM]	EC50 (HT-29) [µM]	EC50 (Hela) [µM]	EC50 (Huh-7) [µM]	EC50 (MCF-7; Homo sapiens, MCF7, 72 h) [µM]	EC50 (MDA-MB 231; Homo sapiens, MDA-MB-231, 72 h) [µM]	EC50 (MKN-45) [µM]	EC50 (PANC-1) [µM]	EC50 (SK-BR-3 [1]) [µM]	EC50 (SK-MEL-28; Homo sapiens, SK-MEL-28, 72 h) [µM]	SMILES	EC50 (A2058) [µM]	EC50 (HaCaT) [µM]	EC50 (HepG-2) [µM]	EC50 (MCF 10A) [µM]	EC50 (ME-180) [µM]	EC50 (MRC-5) [µM]	further results
35.9 ± 1.4	24.5 ± 0.9	11.9 ± 0.6	50.1 ± 1.5	27.6 ± 0.3	13 ± 0.1	32.2 ± 1.1	24.5	16.4 ± 1.6	19.1 ± 0.6	17.7 ± 1.4	22.2	COC(=O)C1=COC(C)[C@@H](C=O)[C@@H]1CC(=O)OCCc1ccc(O)c(O)c1 (mixture of isomers) [3a,b, oleuropein aglycone]	37.2 ± 0.8	36.6	17.7 ± 0.5	9.5 ± 0.4	25.5 ± 0.5	8.6 ± 0.4	Selectivity index SI (HaCaT) (A2058; EC50 HaCaT / EC50 A2058): 1.0; Selectivity index SI (NHDF) (A2058; EC50 NHDF / EC50 A2058): 1.1; Selectivity index SI (MRC-5) (H1299; EC50 MRC-5 / EC50 H1299): 0.4; EC50 (H1299; Homo sapiens, NCI-H1299, H1299, 72 h treatment, read-out: EC50 Values of Olive Oil Polyphenols): 24.1 ± 0.9 µM; Selectivity index SI (MRC-5) (H1437; EC50 MRC-5 / EC50 H1437): 0.7; Selectivity index SI (MCF 10A) (MDA-MB 231; EC50 MCF 10A / EC50 MDA-MB 231): 0.4; EC50 (MDA-MB 231): 25.4 ± 0.8 µM; Selectivity index SI (MCF 10A) (SK-BR-3 [1]; EC50 MCF 10A / EC50 SK-BR-3): 0.5; Selectivity index SI (HaCaT) (SK-MEL-28; EC50 HaCaT / EC50 SK-MEL-28): 2.4; Selectivity index SI (NHDF) (SK-MEL-28; EC50 NHDF / EC50 SK-MEL-28): 2.8; EC50 (SK-MEL-28): 15.1 ± 0.9 µM; EC50 (SK-BR-3 [2]; five days of treatment, ref Menendez et al. (2007) 17, read-out: concentration reducing cell viability by 50%): 47 µM
18.3 ± 1	33.4	26.5 ± 1.1	26.3 ± 2	44.6 ± 0.4	20.2 ± 1.5	> 25	10.4 ± 0.8	10.2 ± 0.4	14.9 ± 0.9	13 ± 0.6	10.4 ± 1.1	C/C=C(/C=O)[C@@H](CC=O)CC(=O)OCCc1ccc(O)cc1 [compound 1, oleocanthal]	18.4 ± 0.4	19.3 ± 0.3	40 ± 5.3	7 ± 0.3	9.1 ± 0.3	2 ± 0.1	EC50 (Caco-2): 34.3 ± 4.1 µM; EC50 (MCF-7): 24.6 ± 2.6 µM; EC50 (SK-BR-3 [2]; 48 h treatment in HGF- and EGF-supplemented media, ref Siddique et al. (2019) 76, read-out: EC50): 27.3 µM
